The values below come from ChEMBL document CHEMBL1201862, “PubChem BioAssay data set” (2004).

Calls of active or inactive are those of the source.

Test [1] concerns the target T1, Calpain-2 catalytic subunit (Sus scrofa, UniProt P43367).
T1 sequence (P43367 whole entry): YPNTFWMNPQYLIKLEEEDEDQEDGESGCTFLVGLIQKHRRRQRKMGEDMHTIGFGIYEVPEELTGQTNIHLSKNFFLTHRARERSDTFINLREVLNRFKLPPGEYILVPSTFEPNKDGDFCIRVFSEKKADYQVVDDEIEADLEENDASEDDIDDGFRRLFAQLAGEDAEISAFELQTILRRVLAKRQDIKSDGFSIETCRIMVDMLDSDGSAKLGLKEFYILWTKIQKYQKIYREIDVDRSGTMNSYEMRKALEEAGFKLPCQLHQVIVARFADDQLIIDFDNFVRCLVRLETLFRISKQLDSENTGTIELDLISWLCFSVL
Put plainly: pig calpain II inhibitor potency, dose response, biochemical, fluorogenic peptide substrate (AID 1420). In kind it is functional.

Test [2] is described as follows: cytotoxicity in HEK-293T cells, dose response, cytotoxicity control for TCR NF-kB inhibitor project, luminescence, T-cell screen hits (AID 489026).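 Further: cells exposed to compound about 14 hours before the viability readout.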 It counts as functional, cell-based.
The target of test [3] is NACHT, LRR and PYD domains-containing protein 3 (Homo sapiens, UniProt Q96P20). As to the kind of experiment: NALP3 inhibitors in yeast, dose response, luminescent (AID 488799). It counts as functional.
Sequence of NACHT, LRR and PYD domains-containing protein 3 (Q96P20 whole entry, the tested form may be a part): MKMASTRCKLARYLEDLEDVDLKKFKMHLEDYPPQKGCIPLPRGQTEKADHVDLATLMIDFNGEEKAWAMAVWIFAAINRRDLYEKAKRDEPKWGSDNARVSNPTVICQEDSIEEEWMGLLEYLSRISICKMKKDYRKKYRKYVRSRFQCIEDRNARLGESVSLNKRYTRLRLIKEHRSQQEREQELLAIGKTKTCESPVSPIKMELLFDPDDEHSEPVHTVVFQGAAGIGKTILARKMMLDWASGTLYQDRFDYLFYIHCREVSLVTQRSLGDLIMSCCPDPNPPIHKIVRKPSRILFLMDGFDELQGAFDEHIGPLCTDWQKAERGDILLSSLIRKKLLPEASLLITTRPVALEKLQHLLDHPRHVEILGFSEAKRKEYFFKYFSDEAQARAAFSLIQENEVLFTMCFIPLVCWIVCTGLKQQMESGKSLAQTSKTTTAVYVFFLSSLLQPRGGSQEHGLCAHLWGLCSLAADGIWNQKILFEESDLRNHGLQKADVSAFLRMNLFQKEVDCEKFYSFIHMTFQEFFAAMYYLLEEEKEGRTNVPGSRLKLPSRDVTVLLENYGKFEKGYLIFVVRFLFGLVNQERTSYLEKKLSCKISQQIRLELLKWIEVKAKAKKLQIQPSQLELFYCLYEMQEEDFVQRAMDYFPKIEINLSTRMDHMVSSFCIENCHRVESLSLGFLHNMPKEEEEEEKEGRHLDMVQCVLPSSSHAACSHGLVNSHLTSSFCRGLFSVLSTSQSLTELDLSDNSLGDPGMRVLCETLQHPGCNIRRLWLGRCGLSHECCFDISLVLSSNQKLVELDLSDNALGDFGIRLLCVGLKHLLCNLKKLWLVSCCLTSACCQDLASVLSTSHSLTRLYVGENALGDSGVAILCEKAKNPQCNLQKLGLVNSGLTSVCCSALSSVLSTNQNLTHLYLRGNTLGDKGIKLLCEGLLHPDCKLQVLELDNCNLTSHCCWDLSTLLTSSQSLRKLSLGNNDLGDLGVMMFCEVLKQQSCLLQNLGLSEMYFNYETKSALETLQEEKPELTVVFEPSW
The nature of test [4]: inhibitors of intracellular T. cruzi replication, confirmation, NIH3T3 host cells, beta-gal luminescence (AID 2044).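 Further: intracellular parasites grown in NIH/3T3 mouse fibroblasts as host cells; luminescent beta-galactosidase reporter signal from transgenic T. cruzi replicating inside host cells; inhibitors lower the luminescence signal.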 In kind it is functional, cell-based.
The target of test [5] is Neurotensin receptor type 1 (Homo sapiens, UniProt P30989). In kind it is functional.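 Further: Image-based confirmatory dose-response assay measuring agonist activity at NTR1; NTR1-expressing U2OS osteosarcoma cells imaged for beta-arrestin GFP spot formation; agonist potency where compounds increase beta-arrestin recruitment.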
Sequence of Neurotensin receptor type 1 (P30989 whole entry): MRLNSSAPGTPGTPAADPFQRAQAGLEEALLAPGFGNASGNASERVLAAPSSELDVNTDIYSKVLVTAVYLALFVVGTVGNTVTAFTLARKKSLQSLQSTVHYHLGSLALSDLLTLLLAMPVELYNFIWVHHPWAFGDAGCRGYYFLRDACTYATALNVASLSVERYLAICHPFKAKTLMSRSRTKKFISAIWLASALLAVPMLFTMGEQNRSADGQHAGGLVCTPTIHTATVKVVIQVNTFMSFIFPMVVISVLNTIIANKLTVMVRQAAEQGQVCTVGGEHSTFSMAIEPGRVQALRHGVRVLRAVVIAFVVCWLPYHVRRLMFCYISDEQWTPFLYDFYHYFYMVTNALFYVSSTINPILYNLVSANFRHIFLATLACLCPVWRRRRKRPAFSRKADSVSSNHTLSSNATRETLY
A short description of test [6]: cytotoxicity toward NIH3T3 fibroblasts, dose response, counter-screen, cell-based, ATP luminescence, mouse fibroblasts (AID 2010).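 Further: cells exposed to compound for about 90 hours before reading.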 It counts as functional. (In general: Counterscreens check selectivity or assay interference.)
The test system of test [7] is Vero. Put plainly: cytotoxicity of synthesized analogs in Vero 76, SAR follow-up, cytotoxicity control for West Nile virus antiviral project, Vero 76 cells (AID 2414). To be noted: Chlorocebus sabaeus. In kind it is functional.
The test system of test [8] is Vero. Put plainly: Vero E6 cell cytotoxicity, SAR follow-up, cytotoxicity control for West Nile virus antiviral project, synthesized analogs (AID 2244). In kind it is functional. To be noted: Chlorocebus sabaeus.
Test [9] has as its system Vero. As to the kind of experiment: West Nile virus CPE inhibition, SAR follow-up, cell-based, synthesized analogs (AID 2238). In kind it is functional. Conditions: Chlorocebus sabaeus.
The subject of test [10] is Vero. Put plainly: cytotoxicity of synthesized analogs in Vero cells, SAR follow-up, cytotoxicity control for West Nile virus antiviral project, cell-based, set II (AID 2402). Conditions: Chlorocebus sabaeus. In kind it is functional.
The target of test [11] is Dual specificity protein phosphatase 3 (Homo sapiens, UniProt P51452). As to the kind of experiment: Dose Response Confirmation of compounds that inhibit VHR1 in Fluorescent Assay. [Related pubchem assays (depositor defined):AID1661, AID1878]. It counts as functional.
Sequence of Dual specificity protein phosphatase 3 (P51452 whole entry): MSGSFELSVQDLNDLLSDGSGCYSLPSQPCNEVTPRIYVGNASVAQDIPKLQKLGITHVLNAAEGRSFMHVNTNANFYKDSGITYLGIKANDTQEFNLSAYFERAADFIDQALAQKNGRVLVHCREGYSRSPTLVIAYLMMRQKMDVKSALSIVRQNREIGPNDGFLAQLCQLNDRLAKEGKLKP
Test [12] has as its target Low molecular weight phosphotyrosine protein phosphatase (Homo sapiens, UniProt P24666). It counts as functional. To be noted: read-out: IC50_Mean.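 Further: Dose-response confirmation assay measuring inhibition of LMPTP enzyme activity by fluorescence intensity read-out.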
Test [13] addresses T2, Tyrosine-protein phosphatase non-receptor type 7 (Homo sapiens, UniProt P35236).
T2 sequence (P35236 whole entry): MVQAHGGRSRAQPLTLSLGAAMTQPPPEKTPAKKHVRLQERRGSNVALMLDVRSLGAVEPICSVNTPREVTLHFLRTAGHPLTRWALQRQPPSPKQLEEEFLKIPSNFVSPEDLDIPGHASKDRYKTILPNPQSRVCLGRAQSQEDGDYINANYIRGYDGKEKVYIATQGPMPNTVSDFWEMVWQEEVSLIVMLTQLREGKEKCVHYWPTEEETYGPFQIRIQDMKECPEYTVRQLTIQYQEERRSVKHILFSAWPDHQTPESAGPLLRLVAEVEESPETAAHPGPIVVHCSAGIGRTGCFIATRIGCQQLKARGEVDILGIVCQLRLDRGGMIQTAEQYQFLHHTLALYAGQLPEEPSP
Put plainly: Dose Response confirmation of compounds that inhibit HePTP. [Related pubchem assays (depositor defined):AID1059, AID1661, AID2085]. It counts as functional.

In test [14] the target is Voltage-dependent T-type calcium channel subunit alpha-1H (Homo sapiens, UniProt O95180). Put plainly: Cav3.2 T-type channel inhibitors, cell-based, synthetic library set 1, calcium flux (AID 493022). It counts as functional.
Sequence of Voltage-dependent T-type calcium channel subunit alpha-1H (O95180 whole entry): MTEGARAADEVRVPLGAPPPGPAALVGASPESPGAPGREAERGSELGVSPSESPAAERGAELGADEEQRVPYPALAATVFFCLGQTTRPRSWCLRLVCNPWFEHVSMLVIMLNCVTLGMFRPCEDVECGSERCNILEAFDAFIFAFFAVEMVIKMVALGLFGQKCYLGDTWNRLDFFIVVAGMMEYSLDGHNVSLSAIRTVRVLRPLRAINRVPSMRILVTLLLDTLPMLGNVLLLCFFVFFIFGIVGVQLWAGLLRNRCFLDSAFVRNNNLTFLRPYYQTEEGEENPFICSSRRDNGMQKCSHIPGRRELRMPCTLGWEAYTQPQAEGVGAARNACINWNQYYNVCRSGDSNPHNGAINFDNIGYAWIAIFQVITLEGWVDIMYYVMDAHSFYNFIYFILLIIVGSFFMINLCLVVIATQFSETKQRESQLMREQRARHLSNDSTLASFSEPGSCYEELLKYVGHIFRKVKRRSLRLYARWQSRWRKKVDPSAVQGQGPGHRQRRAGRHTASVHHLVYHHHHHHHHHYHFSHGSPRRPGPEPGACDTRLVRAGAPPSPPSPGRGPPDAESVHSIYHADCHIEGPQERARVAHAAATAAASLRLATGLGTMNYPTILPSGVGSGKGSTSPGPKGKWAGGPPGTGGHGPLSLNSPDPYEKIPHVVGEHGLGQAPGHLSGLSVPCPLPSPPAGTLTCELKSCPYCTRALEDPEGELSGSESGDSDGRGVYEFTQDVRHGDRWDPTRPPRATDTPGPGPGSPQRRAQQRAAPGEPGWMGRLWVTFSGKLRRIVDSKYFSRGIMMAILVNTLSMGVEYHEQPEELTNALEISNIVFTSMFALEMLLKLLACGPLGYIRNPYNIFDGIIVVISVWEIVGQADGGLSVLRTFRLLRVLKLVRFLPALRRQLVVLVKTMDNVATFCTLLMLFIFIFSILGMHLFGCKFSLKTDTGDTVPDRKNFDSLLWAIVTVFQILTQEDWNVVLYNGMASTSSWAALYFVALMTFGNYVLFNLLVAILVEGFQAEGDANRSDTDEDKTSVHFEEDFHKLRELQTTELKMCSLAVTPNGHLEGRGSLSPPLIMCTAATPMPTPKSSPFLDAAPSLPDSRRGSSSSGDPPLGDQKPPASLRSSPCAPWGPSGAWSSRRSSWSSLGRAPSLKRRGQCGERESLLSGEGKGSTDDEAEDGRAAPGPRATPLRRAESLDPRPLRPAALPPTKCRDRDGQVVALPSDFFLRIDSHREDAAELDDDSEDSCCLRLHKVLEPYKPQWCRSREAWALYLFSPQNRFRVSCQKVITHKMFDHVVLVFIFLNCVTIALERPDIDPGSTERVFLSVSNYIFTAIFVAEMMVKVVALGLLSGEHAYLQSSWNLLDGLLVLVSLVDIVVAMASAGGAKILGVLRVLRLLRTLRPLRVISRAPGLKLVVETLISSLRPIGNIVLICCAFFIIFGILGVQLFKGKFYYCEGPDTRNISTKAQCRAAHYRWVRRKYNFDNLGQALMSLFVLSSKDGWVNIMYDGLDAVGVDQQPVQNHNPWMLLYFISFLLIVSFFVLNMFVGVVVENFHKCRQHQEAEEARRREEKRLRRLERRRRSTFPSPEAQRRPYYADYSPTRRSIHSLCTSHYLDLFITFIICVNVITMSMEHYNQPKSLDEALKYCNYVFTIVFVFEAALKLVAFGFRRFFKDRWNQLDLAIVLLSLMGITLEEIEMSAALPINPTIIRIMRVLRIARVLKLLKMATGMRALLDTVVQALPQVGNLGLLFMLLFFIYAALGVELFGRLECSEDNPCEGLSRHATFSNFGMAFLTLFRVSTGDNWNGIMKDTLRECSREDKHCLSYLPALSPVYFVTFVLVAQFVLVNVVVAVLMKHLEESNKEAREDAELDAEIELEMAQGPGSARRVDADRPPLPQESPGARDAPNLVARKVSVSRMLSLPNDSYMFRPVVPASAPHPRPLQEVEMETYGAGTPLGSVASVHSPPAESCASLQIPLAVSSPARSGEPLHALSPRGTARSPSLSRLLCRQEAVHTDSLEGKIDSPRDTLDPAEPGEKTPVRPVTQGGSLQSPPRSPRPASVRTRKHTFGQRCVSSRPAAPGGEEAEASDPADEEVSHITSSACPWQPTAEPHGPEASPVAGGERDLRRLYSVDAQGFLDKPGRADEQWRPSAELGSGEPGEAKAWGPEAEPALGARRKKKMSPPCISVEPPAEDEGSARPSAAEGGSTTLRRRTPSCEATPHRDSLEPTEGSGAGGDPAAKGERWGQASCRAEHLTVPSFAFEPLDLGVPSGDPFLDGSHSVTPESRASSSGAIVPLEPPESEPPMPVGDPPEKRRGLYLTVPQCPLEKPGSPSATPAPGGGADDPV
Test [15] has as its target T3, Kappa-type opioid receptor (Homo sapiens, UniProt P41145). Put plainly: SAR analysis of small molecule antagonists of the kappa opioid receptor via a luminescent beta-arrestin assay - Set 4. [Related pubchem assays (depositor defined):AID1777, AID1778, AID1785, AID1786, AID1966, AID2133, AID2136, AID2285]. It counts as functional.
The target of a further test is Mu-type opioid receptor (Homo sapiens, UniProt P35372). As to the kind of experiment: SAR Analysis of Antagonists of the MOR Receptor using an Image-Based Assay - Set 3. [Related pubchem assays (depositor defined):AID1777, AID1785, AID1786, AID1966, AID2133, AID2136, AID2284, AID2285, AID2420]. In kind it is functional.
The target of test [16] is T3, Kappa-type opioid receptor. As to the kind of experiment: SAR analysis of small molecule antagonists of the kappa opioid receptor via a luminescent beta-arrestin assay - Set 6. [Related pubchem assays (depositor defined):AID1777, AID1778, AID1785, AID1786, AID1966, AID2133, AID2136, AID2285]. In kind it is functional.
For test [17], the target named is Delta-type opioid receptor (Homo sapiens, UniProt P41143). Put plainly: SAR Analysis of Antagonists of the DOR Receptor using an Image-Based Assay - Set 3. [Related pubchem assays (depositor defined):AID1777, AID1785]. It counts as functional.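 Further: U2OS cells expressing DOR1 and beta-arrestin GFP stimulated with 100 nM SNC80; imaging of GFP-tagged beta-arrestin moving into spots after receptor activation.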
Sequence of Delta-type opioid receptor (P41143 whole entry): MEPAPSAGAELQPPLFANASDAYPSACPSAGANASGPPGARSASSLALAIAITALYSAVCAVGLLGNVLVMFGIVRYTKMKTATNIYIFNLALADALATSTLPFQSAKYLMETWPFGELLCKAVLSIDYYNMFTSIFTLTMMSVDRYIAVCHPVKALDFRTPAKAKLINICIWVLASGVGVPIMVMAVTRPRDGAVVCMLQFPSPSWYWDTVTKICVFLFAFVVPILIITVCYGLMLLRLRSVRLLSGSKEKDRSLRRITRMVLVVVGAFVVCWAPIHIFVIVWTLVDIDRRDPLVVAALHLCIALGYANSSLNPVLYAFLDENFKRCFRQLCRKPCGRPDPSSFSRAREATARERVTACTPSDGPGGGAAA
In test [18] the target is T3, Kappa-type opioid receptor. Put plainly: SAR analysis of Antagonists of the Kappa Opioid Receptor (KOR) using an Image-Based Assay - Set 4. [Related pubchem assays (depositor defined):AID1777, AID1785]. In kind it is functional.

T3 sequence (P41145 whole entry): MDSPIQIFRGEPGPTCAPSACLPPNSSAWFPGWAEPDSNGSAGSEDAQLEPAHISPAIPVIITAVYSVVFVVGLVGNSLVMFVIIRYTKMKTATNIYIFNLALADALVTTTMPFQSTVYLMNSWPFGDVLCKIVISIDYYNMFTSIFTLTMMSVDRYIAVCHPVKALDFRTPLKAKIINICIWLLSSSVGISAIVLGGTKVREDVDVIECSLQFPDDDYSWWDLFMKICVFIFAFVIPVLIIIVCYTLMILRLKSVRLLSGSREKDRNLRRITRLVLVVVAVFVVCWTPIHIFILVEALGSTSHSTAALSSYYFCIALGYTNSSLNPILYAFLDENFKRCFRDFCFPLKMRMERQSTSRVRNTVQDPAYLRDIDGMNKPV
Sequence of Low molecular weight phosphotyrosine protein phosphatase (P24666 whole entry): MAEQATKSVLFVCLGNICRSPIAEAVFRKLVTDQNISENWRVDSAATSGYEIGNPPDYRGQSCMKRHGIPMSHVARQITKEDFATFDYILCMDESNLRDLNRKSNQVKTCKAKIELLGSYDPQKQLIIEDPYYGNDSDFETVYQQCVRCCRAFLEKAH

Turning to `CCCCCCCCn1c2c(c(=N)c3ccccc31)CCC2`, the results for the IC50 in [1], in test [2] and in test [3] were 7.78 µM (not active), 59.4 µM (inactive) and 11.9 µM (active), respectively. Moreover, the EC50 in “cells” is 0.014 µM (active); in test [4], < 0.1 µM (active); in test [5], 17.7 µM (active); in test [6] it was 8.28 µM (active).

For the compound `O=C(CSc1nc2ccccc2c(=O)n1-c1ccc(F)c(Cl)c1)Nc1ccc2c(c1)CCC2`, the 50% cytotoxic concentration (CC50) with Vero [7] was > 66.6 µM (active); in the test with Vero [8], > 40 µM (active); in the test with Vero [10] it was > 100 µM (active). Further, in the test on Vero [9], the IC50 is 19.3 µM (active).

Take `O=C(CSc1ccc2ccccc2n1)Nc1nsc(-c2ccc(Cl)cc2)n1`: the IC50 in [11] was 6.74 µM (active); in [12], 11.7 µM (active); in test [13], 0.931 µM (active).

As to `O=C(COc1ccc(F)cc1Cl)Nc1nnc(-c2ccc(F)cc2)o1`, the EC50 in [14] is 1.9 µM (active).

As to `Cc1ccc(S(=O)(=O)NCc2ccc(C(=O)NCCCN3CCN(c4ccccc4)CC3)cc2)cc1`, the IC50 was > 20 µM (inactive) in test [15]; 0.469 µM (active) on Mu-type opioid receptor; > 20 µM (inactive) in test [16]; > 32 µM (inactive) in test [17]; > 32 µM (inactive) in [18].

As a reminder, the EC50 is the concentration giving half of the maximal effect. Usually CC50 stands for the concentration that lowers cell viability or growth by half.
